One compound from PMC6825211 (Nature Communications, 2019) can be followed below.

Molecules are shown by their SMILES. Values joined by “and” are separate entries in the source; they are usually repeats but may differ in a detail not shown here. Equal values may be shown once.

Data set [1] relates to isolated islets from db/db mice. Description: Ex vivo pMST1, BIM (western blot) and nuclear PDX1 in isolated db/db islets. Conditions: 10 μM, 24 h ex vivo. Type of data set: cell-based, mouse. An excerpt: mouse islets ex vivo. Representative double-stainings for PDX1 (green) and insulin (red) shown from isolated islets from 10-week old heterozygous db/+ mice or db/db littermates […]
Representative microscopical images are shown. White arrow point to PDX1 deficient nuclei in db/db mouse islets. Related to Figure
(In general: In western blotting, separated proteins are transferred to a membrane and probed.)

Data set [2] has as its target CSK (Homo sapiens, UniProt P41240). Description: Nanosyn kinase profiling, mobility shift assay. Conditions: read-out: % inhibition by neratinib.
Data set [3] relates to INS-1E cells. Description: Cytotoxicity CellTiter-Glo assay. Conditions: all tested concentrations, 24 h.
Procedure: Assay plates were shaken vigorously for 1 min at RT to achieve completed cell lysis. Luminescence intensity was detected on Envision plate reader (Perkin Elmer, MA).
The target of data set [4] is PIM-1-KINASE (Homo sapiens, UniProt P11309). Description: Nanosyn kinase profiling, mobility shift assay. Conditions: read-out: % inhibition by neratinib.
In data set [5] the target is IGF1R (Homo sapiens, UniProt P08069). Kind of data set: Nanosyn kinase profiling, mobility shift assay. Conditions: read-out: % inhibition by neratinib.
The subject of data set [6] is MLD–STZ C57BL/6J mice. Kind of data set: MLD–STZ model: ratio of secreted insulin and glucose at fed state. Type of data set: in vivo, mouse.
Data set [7] has as its system obese diabetic Lepr db/db mice. Description: db/db model: β-cell proliferation (pHH3). It counts as in vivo, mouse. Conditions: dbdb mice.
Data set [8] addresses PI3-KINASE-ALPHA (Homo sapiens, UniProt P42336). Description: Nanosyn kinase profiling, mobility shift assay. The settings on record: read-out: % inhibition by neratinib.
For data set [9], the system named is obese diabetic Lepr db/db mice. Description: db/db model: nuclear PDX1-positive β-cells. Type of data set: in vivo, mouse. Conditions: for PDX1 %/mouse: dbdb mice. The text has this: Data are representative of six mice per group (n = 6 for (a–f)). g–j Mice were killed at day 31. g β-cell mass (given as percentage of the whole pancreatic section from ten sections spanning the width of the pancreas; n = 5 mice/group) and quantitative analyses from triple stainings for (h) TUNEL, (i) Ki67, (j) pHH3, and (k) nuclear PDX1 expression, insulin, and DAPI expressed as percentage of TUNEL-, Ki67-, pHH3-, or nuclear PDX1-positive β-cells ± SEM. An average number of 13667 (h), 5937 (i), 7108 (j), or 4330 (k) β-cells were counted from n = 3–5 (h, i, k) or n = 5–6 (j) mice/group.
Mouse pancreases were dissected and fixed in 4% formaldehyde at 4 °C for 12 h before embedding in paraffin[62]. Two-four-micrometer sections were deparaffinized, rehydrated, and incubated overnight at 4 °C with anti-PDX-1 (Abcam; #47267), anti-Glut2 (Chemicon; #07-1402), anti-Ki67 (Dako; #M7249), anti-phospho-Histone H3 (Ser10; Merck #06-570), and anti-NKX6.1 (DSHB, University of Iowa #F55A12[66]) in combination with TSA (Invitrogen #T30955), or for 2 h at room temperature with anti-insulin (Dako; A0546) antibodies (all at a dilution of 1:100, except anti-PDX-1, which was diluted 1:400) followed by fluorescein isothiocyanate (FITC)- or Cy3-conjugated secondary antibodies (Jackson ImmunoResearch Laboratories, West Grove, PA). Slides were mounted with Vectashield with 4′6-diamidino-2-phenylindole (DAPI) (Vector Labs). β-cell apoptosis was analyzed by the terminal deoxynucleotidyl transferase-mediated dUTP nick-end labeling (TUNEL) technique according to the manufacturer’s instructions (In Situ Cell Death Detection Kit, TMR red; Roche) and double stained for insulin. Fluorescence was analyzed by using a Nikon MEA53200 (Nikon GmbH, Dusseldorf, Germany) microscope, and images were acquired by using NIS-Elements software (Nikon).

Data set [10] deals with IKK-BETA (Homo sapiens, UniProt O14920). Description: Nanosyn kinase profiling, mobility shift assay. Conditions: read-out: % inhibition by neratinib.
Data set [11] has as its target MAPKAPK-2 (Homo sapiens, UniProt P49137). Description: Nanosyn kinase profiling, mobility shift assay. Conditions: read-out: % inhibition by neratinib.
For data set [12], the system named is INS-1E cells. Kind of data set: Caspase-3 activation Nucview assay, TNFα/IFNγ with 33 mM glucose. Type of data set: cell-based, rat. The settings on record: up to 6.7 µM neratinib.
The subject of data set [13] is MLD–STZ C57BL/6J mice. Description: MLD–STZ model: insulin secretion during ipGTT (stimulatory index). It counts as in vivo, mouse. Conditions: glucose-stimulated, i.p. As for the experimental part:
C57Bl/6J mice were injected with 40 mg/kg streptozotocin or citrate buffer for 5 consecutive days. […] In d, basal glucose values were normalized to 100%. e Insulin secretion measured from retro-orbital blood draw during an ipGTT measured before (0 min) and 15 min after glucose injection; data are expressed as the ratio of secreted insulin at 15 min/0 min (stimulatory index). f The ratio of secreted insulin and glucose is calculated at fed state. g–i Mice were killed at day 35. g β-cell mass (given as percentage of the whole pancreatic section from ten sections spanning the width of the pancreas) and quantitative analyses from triple staining for h TUNEL or i Ki67, insulin, and DAPI expressed as percentage of TUNEL- or Ki67-positive β-cells ±SEM. An average number of 2331 (h), or 26369 (i) β-cells were counted. n = 9 mice/group for (a); n = 4–12 for (b); n = 5–15 for (c) and (d); n = 12–19 for (e); n = 8–14 for (f); n = 4–9 for (g); n = 4–11 for (h); and n = 6–11 mice/groupfor (i); all from three independent experiments).
For intraperitoneal glucose tolerance tests, mice were fasted 12 h overnight and injected i.p. with glucose (40%; B.Braun, Melsungen, Germany) at a dose of 1 g/kg body weight. […] Insulin secretion was measured before (0 min) and after (15 and 30 min) i.p. injection of glucose (2 g/kg) and measured by using ultrasensitive mouse Elisa kit (ALPCO Diagnostics, Salem, NH).

In data set [14] the test system is INS-1E cells. Kind of data set: Caspase-3 activation Nucview assay, thapsigargin. It counts as cell-based, rat. The settings on record: 0.1 µM thapsigargin, NucView 488. The method, then:
Apoptosis was induced after 24 h of compound treatment by 0.1 µM Thapsigargin (Torics, Bristol, United Kingdom) with caspase-3 substrate, Nucview 488 (Biotium, CA) in the treatment.
1 50 Supplementary Figure 3
100 Cell number Cell Number
evaluated through Nucview488 and Hoechst33342.
were analyzed through qRT-PCR.
detected on plate reader.

Sequence of MAPKAPK-2 (P49137 whole entry): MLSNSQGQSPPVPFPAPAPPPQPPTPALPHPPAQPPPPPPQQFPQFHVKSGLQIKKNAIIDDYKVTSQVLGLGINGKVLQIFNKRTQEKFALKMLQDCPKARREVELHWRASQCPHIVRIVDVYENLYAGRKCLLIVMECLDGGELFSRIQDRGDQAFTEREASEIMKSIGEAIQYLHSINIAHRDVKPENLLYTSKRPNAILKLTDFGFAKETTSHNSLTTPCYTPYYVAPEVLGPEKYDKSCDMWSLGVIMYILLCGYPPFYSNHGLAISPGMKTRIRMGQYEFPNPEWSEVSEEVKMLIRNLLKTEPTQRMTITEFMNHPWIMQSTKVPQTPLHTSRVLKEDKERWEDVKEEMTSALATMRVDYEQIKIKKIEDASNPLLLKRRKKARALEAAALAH
Sequence of IGF1R (P08069 31-1367): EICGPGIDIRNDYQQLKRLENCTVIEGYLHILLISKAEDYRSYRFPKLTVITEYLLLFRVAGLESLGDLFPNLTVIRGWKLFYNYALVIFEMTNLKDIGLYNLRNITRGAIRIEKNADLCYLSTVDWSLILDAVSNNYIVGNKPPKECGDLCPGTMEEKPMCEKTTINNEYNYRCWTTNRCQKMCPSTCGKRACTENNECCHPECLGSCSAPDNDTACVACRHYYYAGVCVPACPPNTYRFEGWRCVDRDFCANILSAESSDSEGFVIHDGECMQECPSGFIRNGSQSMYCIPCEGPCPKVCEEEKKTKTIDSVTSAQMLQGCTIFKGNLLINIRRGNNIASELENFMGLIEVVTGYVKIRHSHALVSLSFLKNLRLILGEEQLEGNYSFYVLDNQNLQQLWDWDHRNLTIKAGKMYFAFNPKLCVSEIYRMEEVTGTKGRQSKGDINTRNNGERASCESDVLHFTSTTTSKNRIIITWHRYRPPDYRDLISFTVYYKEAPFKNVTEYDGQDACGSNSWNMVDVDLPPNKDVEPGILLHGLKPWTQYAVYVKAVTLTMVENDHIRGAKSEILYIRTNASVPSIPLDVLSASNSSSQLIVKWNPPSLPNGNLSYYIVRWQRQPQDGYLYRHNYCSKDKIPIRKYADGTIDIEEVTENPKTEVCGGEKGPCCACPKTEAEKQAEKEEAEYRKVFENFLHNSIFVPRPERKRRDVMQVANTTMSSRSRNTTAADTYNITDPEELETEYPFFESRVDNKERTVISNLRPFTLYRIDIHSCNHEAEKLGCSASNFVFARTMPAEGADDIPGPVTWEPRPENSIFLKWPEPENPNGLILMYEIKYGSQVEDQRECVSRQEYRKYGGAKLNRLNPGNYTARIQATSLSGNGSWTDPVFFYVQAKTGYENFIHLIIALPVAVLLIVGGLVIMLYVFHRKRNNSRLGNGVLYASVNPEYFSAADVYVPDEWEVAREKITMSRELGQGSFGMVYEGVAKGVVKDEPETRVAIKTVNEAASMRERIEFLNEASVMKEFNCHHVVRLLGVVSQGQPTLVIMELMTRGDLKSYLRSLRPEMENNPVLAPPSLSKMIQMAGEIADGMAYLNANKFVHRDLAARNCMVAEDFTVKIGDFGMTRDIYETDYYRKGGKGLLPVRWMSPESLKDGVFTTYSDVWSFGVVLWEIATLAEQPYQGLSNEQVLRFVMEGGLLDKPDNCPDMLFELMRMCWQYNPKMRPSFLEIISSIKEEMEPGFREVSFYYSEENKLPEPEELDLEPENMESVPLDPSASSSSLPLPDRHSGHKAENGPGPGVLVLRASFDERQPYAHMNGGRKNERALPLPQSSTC
Sequence of CSK (P41240 whole entry): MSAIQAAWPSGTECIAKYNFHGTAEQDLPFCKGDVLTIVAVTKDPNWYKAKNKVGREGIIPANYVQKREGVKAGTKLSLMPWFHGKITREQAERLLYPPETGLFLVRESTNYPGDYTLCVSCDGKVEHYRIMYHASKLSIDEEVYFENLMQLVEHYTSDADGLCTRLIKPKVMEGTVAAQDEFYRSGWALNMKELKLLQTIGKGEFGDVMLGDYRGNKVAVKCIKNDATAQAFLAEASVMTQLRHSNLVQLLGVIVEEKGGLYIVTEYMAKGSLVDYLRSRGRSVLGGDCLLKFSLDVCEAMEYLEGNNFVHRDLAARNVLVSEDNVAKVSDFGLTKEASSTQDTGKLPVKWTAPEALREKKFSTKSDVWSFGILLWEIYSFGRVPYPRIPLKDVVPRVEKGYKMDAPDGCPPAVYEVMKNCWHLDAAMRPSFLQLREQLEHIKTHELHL
Sequence of PIM-1-KINASE (P11309 whole entry): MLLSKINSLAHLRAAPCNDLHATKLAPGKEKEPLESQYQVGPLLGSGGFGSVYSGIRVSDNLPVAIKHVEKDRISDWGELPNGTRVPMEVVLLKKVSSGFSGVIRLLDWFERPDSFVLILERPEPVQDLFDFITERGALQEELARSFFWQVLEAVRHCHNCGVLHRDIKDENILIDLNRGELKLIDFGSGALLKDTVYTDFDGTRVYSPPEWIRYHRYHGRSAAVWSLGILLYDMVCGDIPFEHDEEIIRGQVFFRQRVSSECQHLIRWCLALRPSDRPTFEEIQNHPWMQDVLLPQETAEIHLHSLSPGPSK
Sequence of IKK-BETA (O14920 whole entry): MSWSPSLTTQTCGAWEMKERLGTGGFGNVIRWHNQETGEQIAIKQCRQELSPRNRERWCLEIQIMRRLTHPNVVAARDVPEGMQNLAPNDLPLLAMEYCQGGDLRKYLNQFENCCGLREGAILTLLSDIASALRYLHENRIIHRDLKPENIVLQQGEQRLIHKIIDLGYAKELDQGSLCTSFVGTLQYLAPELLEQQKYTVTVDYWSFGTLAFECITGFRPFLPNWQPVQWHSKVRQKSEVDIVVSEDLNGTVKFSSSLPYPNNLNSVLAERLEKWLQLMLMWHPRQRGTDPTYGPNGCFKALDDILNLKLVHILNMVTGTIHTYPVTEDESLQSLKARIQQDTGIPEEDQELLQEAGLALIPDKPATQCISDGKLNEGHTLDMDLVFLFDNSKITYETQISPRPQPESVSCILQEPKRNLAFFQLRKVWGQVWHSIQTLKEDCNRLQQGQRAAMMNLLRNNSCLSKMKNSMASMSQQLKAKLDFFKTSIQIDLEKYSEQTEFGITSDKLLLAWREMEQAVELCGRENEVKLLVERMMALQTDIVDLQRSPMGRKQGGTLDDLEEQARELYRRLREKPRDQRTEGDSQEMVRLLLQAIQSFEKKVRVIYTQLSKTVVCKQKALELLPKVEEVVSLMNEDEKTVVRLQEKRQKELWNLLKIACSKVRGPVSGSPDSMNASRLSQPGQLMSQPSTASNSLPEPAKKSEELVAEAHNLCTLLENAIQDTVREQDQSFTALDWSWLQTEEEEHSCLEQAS
Sequence of PI3-KINASE-ALPHA (P42336 whole entry): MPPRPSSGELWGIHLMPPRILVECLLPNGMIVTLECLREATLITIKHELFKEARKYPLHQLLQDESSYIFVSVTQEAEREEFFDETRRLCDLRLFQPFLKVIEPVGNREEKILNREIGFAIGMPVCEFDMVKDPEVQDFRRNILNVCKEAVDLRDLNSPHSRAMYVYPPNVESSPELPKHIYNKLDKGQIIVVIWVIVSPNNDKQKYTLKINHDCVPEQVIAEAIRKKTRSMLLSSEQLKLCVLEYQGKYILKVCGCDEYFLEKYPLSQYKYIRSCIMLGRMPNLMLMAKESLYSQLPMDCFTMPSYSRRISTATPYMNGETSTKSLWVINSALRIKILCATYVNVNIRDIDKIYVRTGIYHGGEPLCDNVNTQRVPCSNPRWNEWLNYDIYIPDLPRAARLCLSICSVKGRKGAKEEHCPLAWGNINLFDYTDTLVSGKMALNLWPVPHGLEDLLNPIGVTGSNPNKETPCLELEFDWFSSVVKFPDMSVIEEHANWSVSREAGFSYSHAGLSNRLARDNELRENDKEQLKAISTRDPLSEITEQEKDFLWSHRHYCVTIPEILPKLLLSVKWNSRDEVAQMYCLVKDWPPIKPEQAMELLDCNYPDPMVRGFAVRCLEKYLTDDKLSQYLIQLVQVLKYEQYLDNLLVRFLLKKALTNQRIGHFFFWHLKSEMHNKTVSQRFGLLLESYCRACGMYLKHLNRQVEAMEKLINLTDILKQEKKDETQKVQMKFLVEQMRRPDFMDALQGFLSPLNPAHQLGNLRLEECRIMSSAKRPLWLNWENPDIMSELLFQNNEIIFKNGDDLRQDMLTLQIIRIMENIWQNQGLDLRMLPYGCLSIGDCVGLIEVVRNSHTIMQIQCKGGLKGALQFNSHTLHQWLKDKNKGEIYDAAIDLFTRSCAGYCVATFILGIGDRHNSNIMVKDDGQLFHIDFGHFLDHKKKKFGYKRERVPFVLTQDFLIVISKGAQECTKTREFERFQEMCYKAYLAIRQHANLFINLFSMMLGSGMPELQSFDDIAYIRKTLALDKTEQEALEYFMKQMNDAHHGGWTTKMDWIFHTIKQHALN
Sequence of PI3-KINASE-ALPHA (P27986 whole entry partner): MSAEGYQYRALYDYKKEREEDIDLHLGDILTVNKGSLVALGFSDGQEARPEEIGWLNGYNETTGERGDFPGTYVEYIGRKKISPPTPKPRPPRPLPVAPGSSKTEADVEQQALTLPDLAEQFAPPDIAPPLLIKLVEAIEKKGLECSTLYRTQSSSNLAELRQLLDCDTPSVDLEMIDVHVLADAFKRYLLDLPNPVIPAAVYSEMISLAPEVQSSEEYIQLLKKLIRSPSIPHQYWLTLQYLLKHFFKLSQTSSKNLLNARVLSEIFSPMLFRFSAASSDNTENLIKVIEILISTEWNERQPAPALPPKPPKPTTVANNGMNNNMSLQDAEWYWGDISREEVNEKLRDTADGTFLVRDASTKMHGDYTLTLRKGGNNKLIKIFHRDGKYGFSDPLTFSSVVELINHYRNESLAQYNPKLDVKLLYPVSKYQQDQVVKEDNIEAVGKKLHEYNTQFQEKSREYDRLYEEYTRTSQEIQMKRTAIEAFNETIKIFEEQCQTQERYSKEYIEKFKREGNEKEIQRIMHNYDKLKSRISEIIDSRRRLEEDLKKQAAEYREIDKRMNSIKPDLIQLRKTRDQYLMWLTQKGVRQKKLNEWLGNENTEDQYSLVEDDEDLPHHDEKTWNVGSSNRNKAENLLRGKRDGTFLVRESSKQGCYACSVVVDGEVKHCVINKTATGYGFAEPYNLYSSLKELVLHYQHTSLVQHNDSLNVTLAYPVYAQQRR

In the case of `CCOc1cc2ncc(C#N)c(Nc3ccc(OCc4ccccn4)c(Cl)c3)c2cc1NC(=O)/C=C/CN(C)C` [neratinib], in data set [1], the “MST1 activation and proapoptotic BIM in db/db islets” value is on record as “reversed”. The “nuclear PDX1 expression in db/db islets” value in data set [1] is listed as “enhanced nuclear PDX1 expression”. Besides, the inhibition (in general, the change of the read-out against control, counted positive when it falls) at 10 µM in data set [2] was 95%; in [4], 13%; in data set [5], 37%; in data set [8], 18%; in data set [10] it was -7%; in data set [11], 7%. In addition, the “basal cell viability (steady-state ATP)” value in [3] is recorded as “no evidence of interference on basal cell viability”. In addition, the ins/gluc in data set [6] (NeraCtr, Mean) is 4.232; in data set [6] (NeraCtr, fed state, individual mice), 5.92 and 11.7581 and 5.035 and 1.3144 and 2.029 and 2.349 and 1.295 and 4.152; in [6] (NeraSTZ, Mean), 2.006; in data set [6] (NeraSTZ, fed state, individual mice), 2.868 and 0.965 (2×) and 1.859 and 3.923 and 1.035 and 2.9255 and 4.307 and 0.6012 and 1.262 and 1.53 and 2.798 and 0.7155 and 2.33. The pHH3 %/ mouse was 0.4112% in data set [7] (Mean); 0.7567% and 0.6289% and 0.2824% and 0.1109% and 0.2748% and 0.4135% in data set [7] (individual mice). Also, the “nuclear PDX1” value in data set [9] (db/db, day 31) is “enhanced”. The PDX1 %/mouse was 57.3127% in data set [9] (Mean); 48.8372% and 71.3415% and 51.7595% in data set [9] (individual mice). For the same compound, in [12], the “caspase-3 activation induced by TNFα/IFNγ and high glucose” value is recorded as “largely inhibited”. Also, in [13], the “impaired insulin secretion in STZ-treated mice” value was “significantly improved”. Also, in data set [14], the “caspase-3 activation induced by thapsigargin” value is on record as “dose-dependently abolished”.
